Where two headings read alike, the source gives them in different places.
Key:
[1] = test system: bovine aortic endothelial cells (ECs); assay: Fluorescence light microscopy of actin-stained ECs in multichamber LabTek slides (QCM simulation); type: cell-based; details: for EC shape and morphology (actin stain): 4 hr treatment
Procedure: To acquire detailed information about the change in cell shape and attachment while ECs were exposed to varying nocodazole concentrations, we performed a simulation experiment. 76,400 ECs were plated into multichamber LabTek slides and were allowed to attach for 24 hrs in normal growth media. This number of cells simulates the cell surface density in the QCM device. 50 μL of media was then removed and replaced with 50 μL of media with or without concentrated nocodazole. In duplicate, cells either received no nocodazole (control) or final concentrations of 0.33, 1, 2, 6 or 15 μM nocodazole. After four hours, the cells were fixed and stained to reveal the actin microfilament arrangement within the cells, as described below. These studies were performed to detect the shape and attachment changes in ECs that would roughly correspond to a time when the QCM detected maximal shifts in f and R values. […] For actin localization in the multichamber wells or in the QCM device, media was aspirated and replaced with 3.5% formaldehyde. The cells were fixed for 15 mins at room temperature, washed with PBS and then incubated with rhodamine-labeled phalloidin (0.165 μM in PBS) for 30 mins at room temperature. The cells were then washed with PBS and coverslipped with Cytoseal mounting medium (VWR Scientific). The cells were examined using an Olympus BH2 CTD microscope, and the images were digitized using a CCD camera and imported into Photoshop 5.0 of Adobe® and using a Gateways® P11-390 computer.

[2] = test system: bovine aortic endothelial cells (ECs); assay: Fluorescence light microscopy of actin-stained ECs on the gold QCM crystal surface; type: cell-based; details: 15 μM (FIG. 8B), four hours treatment
Procedure: For actin localization in the multichamber wells or in the QCM device, media was aspirated and replaced with 3.5% formaldehyde. The cells were fixed for 15 mins at room temperature, washed with PBS and then incubated with rhodamine-labeled phalloidin (0.165 μM in PBS) for 30 mins at room temperature. The cells were then washed with PBS and coverslipped with Cytoseal mounting medium (VWR Scientific). The cells were examined using an Olympus BH2 CTD microscope, and the images were digitized using a CCD camera and imported into Photoshop 5.0 of Adobe® and using a Gateways® P11-390 computer. Actin localization within cells grown and or treated with nocodazole in the QCM. We wished to examine the ECs directly attached to the QCM surface with and without nocodazole treatment. Since the […] needed to be chemically fixed on the surface, we needed to sacrifice crystals for this purpose. Two different crystals were used. The first crystal was used to visualize ECs growing on the gold QCM surface at the steady state condition. At the conclusion of the QCM measurement, cells on the crystals were stained to localize actin microfilaments. In the first experiment, ECs were added to the crystal and were allowed to attach for 24 hrs to achieve their normal characteristic Δf and ΔR shifts. […]

[3] = test system: bovine aortic endothelial cells (ECs); assay: EC QCM biosensor: Δf and ΔR shifts of attached endothelial cells after drug addition; type: cell-based; details: for EC50: Bos taurus, Endothelial cell
From the text: The details of how these measurements were made have been presented previously. Basically, an AT cut quartz crystal of resonant frequency 8.85 MHz with gold electrode (5 mm diameter)was used in a cylindrical Teflon cell (Seiko EG&G). The crystal was sandwiched between two silicone O-rings to allow only one side of the electrode to be exposed to the media and serum containing solution (FIG. 1B). The QCM device was placed within a large petri dish, filled with distilled water, at a level well […] the water surface. This water reservoir allowed humidity to be maintained, preventing evaporation from the QCM cell. The QCM was covered with a petri dish cover plate following placement inside a 37° C. temperature regulated cell incubator. A Model QCA 917 Quartz Crystal Analyzer System (Seiko EG&G), comprised of a Main Unit and Oscillator, was used for the simultaneous measurement of the resonant frequency (f) and resonance admittance (A). Before assembly in the well holder, the gold QCM surface was treated chemically to render it hydrophilic. A drop of 1:3 H2O2 (30%): H2SO4 at 80° C. was placed upon and covered the gold surface for 5 minutes, followed by rinsing with distilled water and drying under N2. This procedure was repeated three times. After sterilization and washing with water and PBS, 52 μl of media and 10% Calf Serum (CS) was added onto the QCM electrode and the entire holder was put into a humidified CO2 incubator controlled at 10% CO2. The f and admittance (A) values were automatically monitored at 1 minute intervals using a PC and WinWedge 32, version 3.0 Software (TAL Technologies®) and the stable values at 2 hour were taken as reference values before the addition of cells. After 2 hours, 250 μl media +10% CS containing a specific number of cells was added evenly to the medium surface. Then f and A values were automatically monitored during the process of EC sedimentation to the crystal surface, and during their impact and spreading over a 20 hr period to achieve steady state attachment. In the data reduction phase, values of A, in μS were converted into motional resistance, R, in units of Ω, using the relationship R=10^6/A. Nocodazole achieved its final concentration by being added in a pre-warned 50 μl volume of media and serum, following removal of 50 μl from the top of the EC QCM biosensor well holder. Following the conclusion of each experiment, trypsinable ECs adhering to the gold QCM surface were determined as described below. Bovine aortic endothelial cells (BAEs) were obtained from Clonetics, Inc., and were maintained as stock cultures in DMEM-10% CS, as previously described. BAEs were not used beyond passage 22. For experimental treatments, ECs were trypsinized, washed with PBS, and precise counts of the number of cells were made using an electronic cell counter made by Coulter, Inc., following resuspension in full media (250 μl). At the end of a QCM experiment, cells firmly attached were determined via trypsinization assay and an electronic counter. This protocol involved the following steps. Media was collected from the QCM (M). The QCM was gently washed with 100 μl PBS (W). After 125 μl trypsin (0.05% w/v trypsin, 0.53 mM EDTA, in Hank's Buffered salt solution) was added and incubated for 6 min. at 37° C., this fraction was collected (T1). Following a second trypsinization wash, identical to the first, this fraction was collected (T2). Aliquots from all of the four steps (M, W, T1, T2) were electronically counted using Coulter counting. After trypsinization, the QCM electrode was washed successively with PBS, water, ethanol, then detached from the well holder. It was then cleaned sequentially with a number of reagents to remove all residual ECM and cell debris, as we have previously described. Cleaned in this way, the QCM was used repeatedly with good reproducibility of its initial f and R values, due to complete protein removal from the QCM surface.

[4] = test system: bovine aortic endothelial cells (ECs); details: 3 ng/ml, over 3 days following administration; cited from earlier work
[5] = fluorescence light microscope observations
[6] = 15 μM, ECs beginning to detach from crystal surface

| Compound | EC shape and morphology (actin stain) ([1]; 0.33 μM) | EC shape and morphology (actin stain) ([1]; 1 and 2 μM) | EC shape and morphology (actin stain) ([1]; 6 and 15 μM) | concentration at which changes in EC intercellular contacts and progressive cell rounding begin [1, 5] | concentration by which changes in EC intercellular contacts and cell rounding saturate [1, 5] | EC shape and morphology on QCM crystal (actin stain) [2] | initial maximum increase in ΔR after drug addition ([3]; 2.0 μM final concentration, 20,000 ECs added, steady state biosensor) | Δf drop after drug addition ([3]; 2.0 μM final concentration, over the next 4 hours, 20,000 ECs added, steady state biosensor) | Δ(ΔR) value at 15 μM relative to that measured at 6 μM [3, 6] | Δ(Δf) value at 15 μM relative to that measured at 6 μM [3, 6] | EC50 ([3]; as printed in the conclusion, read-out: PC50 (midpoint value of dose effect curve)) | EC50 ([3]; dose curves of Δ(Δf) and Δ(ΔR) vs log concentration, 0.11-6 μM, read-out: PC50 (effective change in cellular attachment in 50% of the ECs, transition midpoint of dose curve)) | growth stimulation of ECs on the QCM biosensor [4] |
| --- | --- | --- | --- | --- | --- | --- | --- | --- | --- | --- | --- | --- | --- |
| COC(=O)Nc1nc2ccc(C(=O)c3cccs3)cc2[nH]1 [nocodazole] | smaller than control cells | the monolayer became disrupted | significantly reduced cellular area | around 330 nM | ≤ 6 µM | lost cell-cell contact | 14 Ω | 360 Hz | 50% | 50% | 900 nM | ~900 nM |  |
| Fibroblast Growth Factor |  |  |  |  |  |  |  |  |  |  |  |  | stimulated the ECs to divide |
